# Measurements as given in US10077277B2, “Bicyclic heteroarylaminoalkyl phenyl derivatives as PI3K inhibitors” (Incyte Corporation, priority 2014, dated 2018).
# Read-outs that look alike come from different tables or passages of the source.
# What was measured:
# SUDHL-6 cells = assay: SUDHL-6 cell proliferation assay (Example B3); assay type: cell-based; conditions: 3 days, Cell Titer-GLO ATP quantitation, read-out: SUDHL6 IC50
# Method: Example B3: SUDHL-6 Cell Proliferation Assay
# SUDHL-6 cell line (diffuse large B cell lymphoma) was purchased from ATCC (Manassas, Va.) and maintained in the culture medium recommended (RPMI and 10% FBS). To measure the anti-proliferation activity of the compounds through ATP quantitation, the SUDHL-6 cells was plated with the culture medium (5000 cells/well/per 200 μl) into 96-well polystyrene clear black tissue culture plate (Greiner-bio-one through VWR, NJ) in the presence or absence of a concentration range of test compounds. After 3 days, Cell Titer-GLO Luminescent (Promega, Madison, Wis.) cell culture agent was added to each well for 10 minutes at room temperature to stabilize the luminescent signal. This determines the number of viable cells in culture based on quantitation of the ATP present, which signals the presence of metabolically active cells. Luminescence was measured with the TopCount 384 (Packard Bioscience through Perkin Elmer, Boston, Mass.). IC50 data for the Examples is presented in Table 3 determined by the assay of Example B3.
# PI3Kδ (p110δ/p85α) = PI3Kδ (p110δ/p85α) (Homo sapiens (Human), UniProt O00329); assay: PI3Kδ scintillation proximity assay (Example A3); assay type: biochemical; conditions: Assay A3, 20 μM ATP
# Excerpt: Example A3: PI3Kδ Scintillation Proximity Assay
# [γ-^33P]ATP (10 mCi/mL) was purchased from PerkinElmer (Waltham, Mass.). Lipid kinase substrate, D-myo-Phosphatidylinositol 4,5-bisphosphate (PtdIns(4,5)P2)D (+)-sn-1,2-di-O-octanoylglyceryl, 3-O-phospho linked (PIP2), CAS 204858-53-7, was purchased from Echelon Biosciences (Salt Lake City, Utah). PI3Kδ (p110δ/p85α) was purchased from Millipore (Bedford, Mass.). ATP, MgCl2, DTT, EDTA, MOPS and CHAPS were purchased from SigmaAldrich (St. Louis, Mo.). Wheat Germ Agglutinin (WGA) YSi SPA Scintillation Beads was purchased from GE healthcare life sciences (Piscataway, N.J.).
# The kinase reaction was conducted in polystyrene 384-well matrix white plate from Thermo Fisher Scientific in a final volume of 25 μL. Inhibitors were first diluted serially in DMSO and added to the plate wells before the addition of other reaction components. The final concentration of DMSO in the assay was 0.5%. The PI3K assays were carried out at room temperature in 20 mM MOPS, pH 6.7, 10 mM MgCl2, 5 mM DTT and CHAPS 0.03%. Reactions were initiated by the addition of ATP, the final reaction mixture consisted of 20 μM PIP2, 20 μM ATP, 0.2 μCi [γ-^33P] ATP, 4 nM PI3Kδ. Reactions were incubated for 210 min and terminated by the addition of 40 μL SPA beads suspended in quench buffer: 150 mM potassium phosphate pH 8.0, 20% glycerol. 25 mM EDTA, 400 μM ATP. The final concentration of SPA beads was 1.0 mg/mL. After the plate sealing, plates were shaken overnight at room temperature and centrifuged at 1800 rpm for 10 minutes, the radioactivity of the product was determined by scintillation counting on Topcount (PerkinElmer). IC50 determination was performed by fitting the curve of percent control activity versus the log of the inhibitor concentration using the GraphPad Prism 3.0 software. IC50 data for the Examples is presented in Table 2 as determined by Assay A3.
# PI3Kδ (p110δ/p85α), sequence (O00329 whole entry): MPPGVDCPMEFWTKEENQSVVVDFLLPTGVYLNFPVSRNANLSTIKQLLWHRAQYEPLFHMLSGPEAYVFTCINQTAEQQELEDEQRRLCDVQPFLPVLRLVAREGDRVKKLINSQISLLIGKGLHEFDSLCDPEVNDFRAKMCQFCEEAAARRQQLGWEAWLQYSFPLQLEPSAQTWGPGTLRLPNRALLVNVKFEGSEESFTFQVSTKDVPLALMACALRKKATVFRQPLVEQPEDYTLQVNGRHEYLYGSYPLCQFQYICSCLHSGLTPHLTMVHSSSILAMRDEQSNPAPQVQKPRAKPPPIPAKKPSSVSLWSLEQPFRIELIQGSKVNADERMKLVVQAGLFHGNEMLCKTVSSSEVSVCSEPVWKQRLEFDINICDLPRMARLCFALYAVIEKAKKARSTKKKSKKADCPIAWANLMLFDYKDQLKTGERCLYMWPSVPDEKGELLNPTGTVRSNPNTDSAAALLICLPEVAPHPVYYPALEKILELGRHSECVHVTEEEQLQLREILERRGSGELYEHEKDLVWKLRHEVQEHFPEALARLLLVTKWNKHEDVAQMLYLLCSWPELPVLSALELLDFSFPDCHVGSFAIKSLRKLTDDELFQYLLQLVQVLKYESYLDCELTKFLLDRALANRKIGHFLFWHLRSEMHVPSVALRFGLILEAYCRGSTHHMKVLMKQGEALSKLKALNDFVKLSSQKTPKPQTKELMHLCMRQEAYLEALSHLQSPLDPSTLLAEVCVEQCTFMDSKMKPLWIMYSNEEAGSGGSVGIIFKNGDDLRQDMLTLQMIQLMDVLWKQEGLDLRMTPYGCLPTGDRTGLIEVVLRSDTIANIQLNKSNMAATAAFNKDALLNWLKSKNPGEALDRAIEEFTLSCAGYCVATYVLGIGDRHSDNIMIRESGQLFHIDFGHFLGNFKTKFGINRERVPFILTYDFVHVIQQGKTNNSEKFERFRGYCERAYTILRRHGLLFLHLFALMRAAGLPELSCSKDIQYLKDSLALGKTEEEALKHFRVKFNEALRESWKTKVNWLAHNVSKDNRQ
# PI3Kδ (p110δ/p85α), sequence (P27986 whole entry partner): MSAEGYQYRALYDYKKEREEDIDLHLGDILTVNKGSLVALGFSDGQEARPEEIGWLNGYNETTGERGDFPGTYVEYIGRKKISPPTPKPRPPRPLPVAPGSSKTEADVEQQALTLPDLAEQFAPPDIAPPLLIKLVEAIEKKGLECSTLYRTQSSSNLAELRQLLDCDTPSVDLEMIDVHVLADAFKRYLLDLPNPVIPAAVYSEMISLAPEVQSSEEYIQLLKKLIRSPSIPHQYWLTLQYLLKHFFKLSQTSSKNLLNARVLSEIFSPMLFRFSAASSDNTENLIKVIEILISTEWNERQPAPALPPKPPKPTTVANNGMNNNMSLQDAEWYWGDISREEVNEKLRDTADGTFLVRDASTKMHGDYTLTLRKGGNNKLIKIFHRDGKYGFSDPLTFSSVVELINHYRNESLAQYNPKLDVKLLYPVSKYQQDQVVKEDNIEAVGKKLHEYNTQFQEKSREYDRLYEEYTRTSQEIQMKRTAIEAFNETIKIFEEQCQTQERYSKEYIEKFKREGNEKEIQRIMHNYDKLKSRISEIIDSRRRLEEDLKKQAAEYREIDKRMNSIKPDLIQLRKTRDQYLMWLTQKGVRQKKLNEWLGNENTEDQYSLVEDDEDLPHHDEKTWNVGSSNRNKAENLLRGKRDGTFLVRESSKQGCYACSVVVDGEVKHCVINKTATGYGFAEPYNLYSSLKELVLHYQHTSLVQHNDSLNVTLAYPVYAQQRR
SMILES,"IC50 (SUDHL-6 cells; Homo sapiens, SU-DHL-6, 72 h)",IC50 (PI3Kδ (p110δ/p85α)),IC50 (SUDHL-6 cells)
"CCNC(=O)c1c(C)c(Cl)cc(C(C)Nc2ncnc3cccnc23)c1-c1cc(F)cc(F)c1 (stereo not shown) [Example 4, 4-Chloro-N-ethyl-3′,5′-difluoro-3-methyl-6-[1-(pyrido[3,2-d]pyrimidin-4-ylamino)ethyl]biphenyl-2-carboxamide]",≤ 0.5 µM,≤ 0.1 µM,
"CCOc1c(C(C)Nc2ncnc3scnc23)cc(Cl)c(F)c1C1CNC(=O)C1 (single isomer, unassigned) [Example 1C, 4-{3-chloro-6-ethoxy-2-fluoro-5-[1-([1,3]thiazolo[5,4-d]pyrimidin-7-ylamino)ethyl]phenyl}pyrrolidin-2-one]",,≤ 0.1 µM,≤ 0.5 µM
"COc1c([C@H](C)Nc2ncnc3cccnc23)cc(Cl)c(C)c1-c1ccc(C(=O)N(C)C)nc1 [Example 3, 5-{3-Chloro-6-methoxy-2-methyl-5-[(1S)-1-(pyrido[3,2-d]pyrimidin-4-ylamino)ethyl]phenyl}-N,N-dimethylpyridine-2-carboxamide bis(trifluoroacetate)]",≤ 0.5 µM,≤ 0.1 µM,
"CCOc1c(C(C)Nc2ncnc3scnc23)cc(Cl)c(F)c1C1CNC(=O)C1 (single isomer, unassigned) [Example 1A, 4-{3-chloro-6-ethoxy-2-fluoro-5-[1-([1,3]thiazolo[5,4-d]pyrimidin-7-ylamino)ethyl]phenyl}pyrrolidin-2-one]",≤ 0.5 µM,≤ 0.1 µM,
"CCOc1c([C@@H](C)Nc2ncnc3cccnc23)cc(Cl)c(F)c1[C@@H]1CNC(=O)C1 [Example 2A, 4-{3-chloro-6-ethoxy-2-fluoro-5-[1-(pyrido[3,2-d]pyrimidin-4-ylamino)ethyl]phenyl}pyrrolidin-2-one]",≤ 0.5 µM,≤ 0.1 µM,
